Values quoted from earlier work, collected in US20020132021A1, “Elicited plant products” (priority 1997, published 2002).

Tested on: indole alkaloid pathway
Details: jasmonic acid addition, dosage studies

CC/C=C\C[C@H]1C(=O)CC[C@@H]1CC(=O)O [Jasmonic acid]
increase in the specific yield of ajmalicine: 80%
increase in the specific yield of horhammericine: 500%
increase in the specific yield of lochnericine: 150%
increase in the specific yield of serpentine: 60%
